Several values for one entry are separate records, joined by “and”; a condition that tells them apart may be missing. Identical values can stand only once.
System: 233499-124-R-J3-PDC complex spheroid viability
Test: Anticancer human tumor 233499-124-R-J3-PDC patient-derived colon adenocarcinoma cell line growth inhibition [CLK]
Settings: for viability, T/C: stronger effect = lower value
Summary of the method: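 Multi-cell-type spheroids combined patient-derived tumor cells with HUVEC endothelial cells and human mesenchymal stem cells. Paired agents were dosed in half-log steps down from about clinical Cmax, or from 10 microM where Cmax was unknown.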
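Further: spheroids exposed to the drug combinations for seven days.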
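Wherever viability, T/C is given: percent viability relative to DMSO vehicle control wells taken as 100%.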

Compound: C=CC(=O)N1CCN(c2nc(=O)n(-c3c(C)ccnc3C(C)C)c3nc(-c4c(O)cccc4F)c(F)cc23)C(C)C1 (stereo not given) + CN1CCN(c2cc(C(=O)Nc3cc4cc(-c5cnn(C)c5)ccc4cn3)ccn2)CC1
- IC50 (curve of first compound, second compound 0.0316 µM): > 10000 nM
- IC50 (curve of first compound, second compound 0.1 µM): > 10000 nM
- IC50 (curve of first compound, second compound 0.316 µM): > 10000 nM
- IC50 (curve of first compound, second compound 1 µM): < 31.6 nM
- IC50 (curve of first compound, second compound 3.16 µM): < 31.6 nM
- IC50 (curve of first compound, second compound 10 µM): < 31.6 nM
- viability, T/C (second compound 0.0316 µM, first compound 0.0316 µM): 91%
- viability, T/C (second compound 0.0316 µM, first compound 0.1 µM): 105%
- viability, T/C (second compound 0.0316 µM, first compound 0.316 µM): 103%
- viability, T/C (second compound 0.0316 µM, first compound 1 µM): 102%
- viability, T/C (second compound 0.0316 µM, first compound 3.16 µM): 102%
- viability, T/C (second compound 0.0316 µM, first compound 10 µM): 101%
- viability, T/C (second compound 0.1 µM, first compound 0.0316 µM): 99.8%
- viability, T/C (second compound 0.1 µM, first compound 0.1 µM): 102%
- viability, T/C (second compound 0.1 µM, first compound 0.316 µM): 106%
- viability, T/C (second compound 0.1 µM, first compound 1 µM): 99.9%
- viability, T/C (second compound 0.1 µM, first compound 3.16 µM): 101%
- viability, T/C (second compound 0.1 µM, first compound 10 µM): 108%
- viability, T/C (second compound 0.316 µM, first compound 0.0316 µM): 89.6%
- viability, T/C (second compound 0.316 µM, first compound 0.1 µM): 103%
- viability, T/C (second compound 0.316 µM, first compound 0.316 µM): 96%
- viability, T/C (second compound 0.316 µM, first compound 1 µM): 88.5%
- viability, T/C (second compound 0.316 µM, first compound 3.16 µM): 92.4%
- viability, T/C (second compound 0.316 µM, first compound 10 µM): 82.6%
- viability, T/C (second compound 1 µM, first compound 0.0316 µM): 3.8%
- viability, T/C (second compound 1 µM, first compound 0.1 µM): 11.4%
- viability, T/C (second compound 1 µM, first compound 0.316 µM): 1.76%
- viability, T/C (second compound 1 µM, first compound 1 µM): 2.52%
- viability, T/C (second compound 1 µM, first compound 3.16 µM): 1.73%
- viability, T/C (second compound 1 µM, first compound 10 µM): 0.3%
- viability, T/C (second compound 3.16 µM, first compound 0.0316 µM): 0.65%
- viability, T/C (second compound 3.16 µM, first compound 0.1 µM): 0.61%
- viability, T/C (second compound 3.16 µM, first compound 0.316 µM): 0.73%
- viability, T/C (second compound 3.16 µM, first compound 1 µM): 0.79%
- viability, T/C (second compound 3.16 µM, first compound 3.16 µM): 1.69%
- viability, T/C (second compound 3.16 µM, first compound 10 µM): 1.55%
- viability, T/C (second compound 10 µM, first compound 0.0316 µM): 0.41%
- viability, T/C (second compound 10 µM, first compound 0.1 µM): 0.38%
- viability, T/C (second compound 10 µM, first compound 0.316 µM): 0.45%
- viability, T/C (second compound 10 µM, first compound 1 µM): 0.53%
- viability, T/C (second compound 10 µM, first compound 3.16 µM): 0.5%
- viability, T/C (second compound 10 µM, first compound 10 µM): 1.01%

Compound: CCc1c2c(nc3ccc(O)cc13)-c1cc3c(c(=O)n1C2)COC(=O)[C@]3(O)CC
- viability, T/C (compound 0.00316 µM): 88.5% and 83.9%
- viability, T/C (compound 0.01 µM): 62.1% and 59.6%
- viability, T/C (compound 0.0316 µM): 87.1% and 45.6%
- viability, T/C (compound 0.1 µM): 92.3% and 52.8%
- viability, T/C (compound 0.316 µM): 80.8% and 49.8%
- viability, T/C (compound 1 µM): 42% and 37.8%

Compound: Nc1ccn(C2OC(CO)C(O)C2(F)F)c(=O)n1 (stereo not given)
- viability, T/C (compound 0.0316 µM): 100% and 98%
- viability, T/C (compound 0.1 µM): 80.3% and 47.1%
- viability, T/C (compound 0.316 µM): 39.9% and 22.4%
- viability, T/C (compound 1 µM): 33.8% and 20.9%
- viability, T/C (compound 3.16 µM): 38.9% and 21.9%
- viability, T/C (compound 10 µM): 41.3% and 15.8%
- IC50 (curve of compound): 237 nM and 93.6 nM
